The source of these data is article PMC11473416, “Coumarin-chalcone derivatives as dual NLRP1 and NLRP3 inflammasome inhibitors targeting oxidative stress and inflammation in neurotoxin-induced HMC3 and BE(2)-M17 cell models of Parkinson's disease” (Frontiers in Aging Neuroscience, 2024).

As a reminder, the IC50 is the concentration at which inhibition is half-maximal. Low readings indicate inhibition by little substance, high ones a need for much substance. The term EC50 denotes the concentration needed to bring the measured effect to its halfway point. Low readings indicate an effect from little substance, high ones a need for much substance.

Structures are written as SMILES.

The nature of data set [1]: cytotoxicity MTT assay in HMC3 cells. Particulars: human, HMC3 microglial cells, MTT, 1–100 μM, 24 h. The class given is cell-based, human. The procedure:
(§1) Human HMC3 microglial (CRL-3304) and neuroblastoma BE(2)-M17 (CRL-2267) cells were obtained from American Type Culture Collection. BE(2)-M17 develops a better dopaminergic phenotype than SH-SY5Y when treated with retinoic acid to direct neuronal differentiation (Carvajal-Oliveros et al., [2022]). Cells were routinely maintained in Dulbecco's Modified Eagle Medium-Nutrient Mixture F12 (DMEM-F12) supplemented with 10% fetal bovine serum (FBS; Thermo Fisher Scientific, Waltham, MA, USA) in a 37°C incubator, with 95% relative humidity and 5% CO2 (NuAire, Plymouth, MN, USA).
(§2) To evaluate cytotoxicity of LM compounds and MPP^+, HMC3 (1 × 10^4) or BE(2)-M17 (2 × 10^4) cells were plated on 96-well dishes, grown for 20 h, and treated with LM compounds (1–100 μM) or MPP^+ [HMC3: 0–8 mM; BE(2)-M17: 0–5 mM]. Next day, 20 μl of tetrazolium dye 3-(4,5-dimethylthiazol-2-yl)-2,5-diphenyltetrazolium bromide (MTT, 5 mg/ml; Sigma-Aldrich) was added to the cells at 37°C for 3 h. The resulted insoluble purple formazan products were dissolved by lysis buffer (composition: 10% Triton X-100, 0.1 N HCl, 18% isopropanol). The absorbance of the dissolved product at optical density (OD) 570 nm was read by using a FLx800 fluorescence microplate spectrophotometer (Bio-Tek, Winooski, VT, USA). The half maximal inhibitory concentration (IC50) of LM compounds was determined through the construction of a dose-response curve. MPP^+ at 4 mM (HMC3 cell viability: 65%−69%) or 0.62 mM [BE(2)-M17 cell viability: 79%−84%] was selected to induce inflammation for further experiments.
(In general: Tetrazolium dyes change colour on reduction, which living cells bring about.)

A short description of data set [2]: cytotoxicity MTT assay in BE(2)-M17 cells. The data set is classed as cell-based, human. Particulars: human, BE(2)-M17 neuroblastoma cells, MTT, 1–100 μM, 24 h. Here is the method:
as §1, §2

Data set [3] can be described thus: DPPH free radical scavenging activity. Particulars: 10–160 μM, 30 min, room temperature. Here is the method:
Stable 1,1-diphenyl-2-picrylhydrazyl (DPPH) radical in ethanol (100 μM; Sigma-Aldrich) was used to measure the antioxidant activity of these LM compounds. After addition of quercetin (positive control) or LM compound (10–160 μM), the mixture was vortexed for 15 s and incubated at room temperature for 30 min. Subsequently, the mixture was measured spectrophotometrically at 517 nm (Multiskan GO microplate spectrophotometer; Thermo Fisher Scientific). The free radical scavenging activity was calculated as the percentage of DPPH discoloration using the formula 1 – (absorbance of sample/absorbance of control) × 100%, with half maximal effective concentration (EC50) calculated using the interpolation method.

Data set [4] can be described thus: oxygen radical antioxidant capacity (OxiSelect kit). To be noted: at 4–100 μM concentration. The procedure: The test of oxygen radical antioxidant capacity (Ou et al., [2001]) was performed using OxiSelect™ kit (Cell Biolabs, San Diego, CA, USA). Briefly, trolox standards (2.5–50 μM) and LM compounds (4–100 μM) were prepared using a serial dilution in a mixture containing 50% acetone and 50% water. After adding fluorescein to blank (50% acetone/50% water), standards, or samples, the mixture was mixed and incubated at 37°C for 30 min. Subsequently, free radical initiator 2,2′-azobis(2-methylpropionamidine) dihydrochloride (AAPH) was added to generate peroxyl radicals (ROO•). The quenching of fluorescent probe over time was recorded at 480 nm excitation and 520 nm emission for 60 min (Bio-Tek FLx800). To quantify the oxygen radical absorbance capacity, the area under the curve (AUC) for blank, standard and samples were calculated. After subtraction of the blank, trolox equivalent (μM) of samples were determined using a calibration curve with trolox standards.

Take `COc1ccccc1/C=C/C(=O)c1c(O)c2ccccc2oc1=O` [LM-009]: the IC50 at 24 h in data set [1] and in data set [2] was more than 100 µM throughout.
Regarding `O=c1c(O)c(-c2ccc(O)c(O)c2)oc2cc(O)cc(O)c12` [Quercetin, reference compound], the EC50 in data set [3] amounted to 21 µM. Also, in data set [4], the “oxygen radical antioxidant capacity, trolox equivalent” value was 14 to 39 µM.
